Experimental data as given in paper PMC2873968, “Novel protein kinase D inhibitors cause potent arrest in prostate cancer cell growth and motility” (BMC Chemical Biology, 2010).

Key:
PKD2 = target: T1, PKD2 (Homo sapiens, UniProt Q9BZL6); experiment: Kinase profiling, single-dose in vitro kinase assay (Caliper Life Sciences); details: read-out: Average % Inhibition PKD2
T1 sequence (Q9BZL6 1-878): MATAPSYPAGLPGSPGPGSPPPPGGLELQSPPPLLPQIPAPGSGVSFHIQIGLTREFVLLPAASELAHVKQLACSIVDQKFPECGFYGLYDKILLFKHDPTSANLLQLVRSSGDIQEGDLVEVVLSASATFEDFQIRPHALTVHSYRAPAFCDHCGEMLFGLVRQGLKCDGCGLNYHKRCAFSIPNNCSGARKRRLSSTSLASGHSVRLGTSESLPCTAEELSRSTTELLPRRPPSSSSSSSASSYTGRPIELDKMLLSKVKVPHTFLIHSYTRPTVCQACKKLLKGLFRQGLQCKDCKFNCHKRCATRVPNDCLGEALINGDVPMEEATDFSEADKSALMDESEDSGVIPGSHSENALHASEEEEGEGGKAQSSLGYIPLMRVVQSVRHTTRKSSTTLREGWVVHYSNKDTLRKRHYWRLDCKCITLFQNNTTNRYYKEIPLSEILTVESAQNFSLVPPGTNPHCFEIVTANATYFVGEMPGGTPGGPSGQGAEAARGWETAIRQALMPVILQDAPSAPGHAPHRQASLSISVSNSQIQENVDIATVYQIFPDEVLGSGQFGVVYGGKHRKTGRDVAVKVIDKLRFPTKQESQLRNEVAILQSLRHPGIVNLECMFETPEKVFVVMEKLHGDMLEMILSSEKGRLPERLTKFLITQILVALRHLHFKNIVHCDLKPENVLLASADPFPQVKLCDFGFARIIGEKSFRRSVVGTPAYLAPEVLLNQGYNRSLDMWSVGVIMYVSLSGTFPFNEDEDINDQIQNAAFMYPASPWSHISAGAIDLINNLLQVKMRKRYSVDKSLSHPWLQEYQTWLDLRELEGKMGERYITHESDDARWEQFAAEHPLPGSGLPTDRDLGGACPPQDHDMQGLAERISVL

ErbB4 = ErbB4 (Homo sapiens, UniProt Q15303); experiment: as above; details: read-out: Average % Inhibition ErbB4
Chain of ErbB4 (Q15303 26-1308): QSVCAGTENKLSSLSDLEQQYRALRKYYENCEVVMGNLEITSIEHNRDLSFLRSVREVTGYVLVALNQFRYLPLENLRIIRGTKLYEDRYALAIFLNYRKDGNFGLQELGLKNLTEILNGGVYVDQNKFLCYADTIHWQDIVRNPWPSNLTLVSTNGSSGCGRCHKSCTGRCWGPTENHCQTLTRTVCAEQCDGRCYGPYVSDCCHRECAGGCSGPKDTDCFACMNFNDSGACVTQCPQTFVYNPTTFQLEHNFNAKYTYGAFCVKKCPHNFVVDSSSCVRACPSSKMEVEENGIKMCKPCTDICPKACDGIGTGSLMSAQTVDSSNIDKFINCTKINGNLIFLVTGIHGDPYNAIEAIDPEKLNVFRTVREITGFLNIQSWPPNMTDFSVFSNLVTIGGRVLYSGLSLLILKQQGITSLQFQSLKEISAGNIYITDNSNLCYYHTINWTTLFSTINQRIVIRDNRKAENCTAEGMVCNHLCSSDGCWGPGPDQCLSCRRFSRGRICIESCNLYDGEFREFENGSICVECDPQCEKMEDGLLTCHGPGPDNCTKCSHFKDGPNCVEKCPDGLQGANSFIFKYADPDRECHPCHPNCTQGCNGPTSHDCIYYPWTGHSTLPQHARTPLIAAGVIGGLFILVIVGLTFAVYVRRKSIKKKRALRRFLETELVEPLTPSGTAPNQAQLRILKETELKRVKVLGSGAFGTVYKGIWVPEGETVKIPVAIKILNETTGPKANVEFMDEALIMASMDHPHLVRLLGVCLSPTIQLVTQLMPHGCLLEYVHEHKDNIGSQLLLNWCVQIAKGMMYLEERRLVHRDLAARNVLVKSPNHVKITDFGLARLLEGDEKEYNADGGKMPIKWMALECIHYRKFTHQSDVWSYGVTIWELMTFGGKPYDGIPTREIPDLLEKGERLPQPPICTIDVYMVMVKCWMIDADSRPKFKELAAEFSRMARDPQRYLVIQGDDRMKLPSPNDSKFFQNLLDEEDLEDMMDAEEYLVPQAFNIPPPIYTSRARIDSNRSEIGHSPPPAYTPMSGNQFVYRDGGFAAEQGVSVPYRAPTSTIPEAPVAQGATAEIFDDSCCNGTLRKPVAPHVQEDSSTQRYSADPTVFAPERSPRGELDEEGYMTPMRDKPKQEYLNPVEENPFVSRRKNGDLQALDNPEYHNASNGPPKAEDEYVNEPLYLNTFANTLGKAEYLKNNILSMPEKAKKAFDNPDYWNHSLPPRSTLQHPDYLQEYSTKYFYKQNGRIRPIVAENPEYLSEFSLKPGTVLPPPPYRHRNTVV

PDK1 = PDK1 (Homo sapiens, UniProt O15530); experiment: as above; details: read-out: Average % Inhibition PDK1
MARK1 = MARK1 (Homo sapiens, UniProt Q9P0L2); experiment: as above; details: read-out: Average % Inhibition MARK1
c-Raf = c-Raf (Homo sapiens, UniProt P04049); experiment: as above; details: read-out: Average % Inhibition c-Raf
Chain of c-Raf (P04049 whole entry): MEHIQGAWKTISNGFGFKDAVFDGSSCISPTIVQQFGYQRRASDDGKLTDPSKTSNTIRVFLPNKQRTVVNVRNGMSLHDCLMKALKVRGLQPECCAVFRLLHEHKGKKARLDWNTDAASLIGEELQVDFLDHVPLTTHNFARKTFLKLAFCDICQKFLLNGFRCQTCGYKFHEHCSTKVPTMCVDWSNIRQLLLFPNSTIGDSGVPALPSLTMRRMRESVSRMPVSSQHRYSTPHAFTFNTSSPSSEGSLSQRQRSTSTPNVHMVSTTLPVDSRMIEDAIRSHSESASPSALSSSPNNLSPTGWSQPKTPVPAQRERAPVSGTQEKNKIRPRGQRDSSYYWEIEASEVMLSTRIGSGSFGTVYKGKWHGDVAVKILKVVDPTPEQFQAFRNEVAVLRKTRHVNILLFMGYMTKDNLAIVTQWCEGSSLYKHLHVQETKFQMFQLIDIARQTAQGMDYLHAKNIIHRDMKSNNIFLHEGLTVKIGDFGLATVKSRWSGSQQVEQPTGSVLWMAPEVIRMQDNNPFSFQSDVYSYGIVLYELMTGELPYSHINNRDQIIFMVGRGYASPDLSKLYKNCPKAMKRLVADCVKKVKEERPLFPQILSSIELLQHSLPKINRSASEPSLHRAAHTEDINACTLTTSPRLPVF

PKCγ = PKCγ (Homo sapiens, UniProt P05129); experiment: as above; details: read-out: Average % Inhibition PKCγ
MSK1 = MSK1 (Homo sapiens, UniProt O75582); experiment: as above; details: read-out: Average % Inhibition MSK1
SRC = SRC (Homo sapiens, UniProt P12931); experiment: as above; details: read-out: Average % Inhibition SRC
Chain of SRC (P12931 whole entry): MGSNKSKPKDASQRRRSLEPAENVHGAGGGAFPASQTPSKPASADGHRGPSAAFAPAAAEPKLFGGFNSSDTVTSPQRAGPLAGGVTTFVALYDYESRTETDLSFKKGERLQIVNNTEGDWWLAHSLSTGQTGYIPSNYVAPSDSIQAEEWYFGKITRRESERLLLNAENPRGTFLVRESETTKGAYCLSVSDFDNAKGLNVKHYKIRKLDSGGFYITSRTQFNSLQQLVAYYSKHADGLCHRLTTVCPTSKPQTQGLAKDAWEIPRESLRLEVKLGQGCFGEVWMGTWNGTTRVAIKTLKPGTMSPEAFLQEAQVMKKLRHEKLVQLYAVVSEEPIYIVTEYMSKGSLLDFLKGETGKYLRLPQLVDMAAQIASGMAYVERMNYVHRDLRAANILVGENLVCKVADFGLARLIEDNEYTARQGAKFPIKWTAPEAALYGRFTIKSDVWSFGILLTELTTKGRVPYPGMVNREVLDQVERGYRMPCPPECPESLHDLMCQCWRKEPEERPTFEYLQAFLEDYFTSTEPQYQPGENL

PKG1α = PKG1α (Homo sapiens, UniProt Q13976); experiment: as above; details: read-out: Average % Inhibition PKG1α
PIM2 = PIM2 (Homo sapiens, UniProt Q9P1W9); experiment: as above; details: read-out: Average % Inhibition PIM2
Chain of PIM2 (Q9P1W9 whole entry): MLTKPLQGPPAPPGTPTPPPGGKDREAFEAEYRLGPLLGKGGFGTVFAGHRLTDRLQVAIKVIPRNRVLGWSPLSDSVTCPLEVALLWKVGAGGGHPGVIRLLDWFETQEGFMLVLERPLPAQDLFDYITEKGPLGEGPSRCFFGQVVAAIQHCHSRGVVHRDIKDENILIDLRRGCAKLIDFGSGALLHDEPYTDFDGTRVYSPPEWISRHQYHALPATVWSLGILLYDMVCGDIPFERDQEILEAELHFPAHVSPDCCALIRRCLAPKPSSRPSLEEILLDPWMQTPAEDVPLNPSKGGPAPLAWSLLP

PDGFRα = PDGFRα (Homo sapiens, UniProt P16234); experiment: as above; details: read-out: Average % Inhibition PDGFRα
Chain of PDGFRα (P16234 24-1089): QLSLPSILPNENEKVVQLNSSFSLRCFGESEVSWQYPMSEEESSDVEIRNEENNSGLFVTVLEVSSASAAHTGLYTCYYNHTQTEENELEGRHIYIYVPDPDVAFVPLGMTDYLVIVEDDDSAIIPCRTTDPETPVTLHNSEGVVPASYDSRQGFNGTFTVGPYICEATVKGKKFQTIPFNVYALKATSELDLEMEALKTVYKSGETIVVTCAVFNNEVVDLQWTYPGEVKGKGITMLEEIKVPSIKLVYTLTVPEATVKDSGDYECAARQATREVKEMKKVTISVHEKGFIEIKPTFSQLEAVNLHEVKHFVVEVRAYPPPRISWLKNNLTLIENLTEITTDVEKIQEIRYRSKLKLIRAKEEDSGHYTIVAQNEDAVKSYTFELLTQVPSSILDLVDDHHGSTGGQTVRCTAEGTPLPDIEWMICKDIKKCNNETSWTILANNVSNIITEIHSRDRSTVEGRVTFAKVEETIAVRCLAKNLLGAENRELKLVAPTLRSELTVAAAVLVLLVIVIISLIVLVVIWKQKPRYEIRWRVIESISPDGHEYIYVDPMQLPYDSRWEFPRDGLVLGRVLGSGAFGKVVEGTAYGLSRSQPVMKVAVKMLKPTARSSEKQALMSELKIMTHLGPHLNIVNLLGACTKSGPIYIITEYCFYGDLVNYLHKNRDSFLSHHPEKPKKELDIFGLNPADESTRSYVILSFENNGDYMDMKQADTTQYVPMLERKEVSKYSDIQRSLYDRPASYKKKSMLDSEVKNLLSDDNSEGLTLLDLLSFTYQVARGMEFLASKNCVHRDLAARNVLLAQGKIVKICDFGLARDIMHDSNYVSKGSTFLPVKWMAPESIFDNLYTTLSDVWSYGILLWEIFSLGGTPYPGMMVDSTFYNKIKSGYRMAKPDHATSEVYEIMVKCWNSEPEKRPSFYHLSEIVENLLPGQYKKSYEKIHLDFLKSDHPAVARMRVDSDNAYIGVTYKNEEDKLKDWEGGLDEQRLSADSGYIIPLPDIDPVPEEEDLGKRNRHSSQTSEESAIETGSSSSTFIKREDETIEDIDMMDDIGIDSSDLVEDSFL

PKA = PKA (Homo sapiens, UniProt P17612); experiment: as above; details: read-out: Average % Inhibition PKA
FLT3 = FLT3 (Homo sapiens, UniProt P36888); experiment: as above; details: read-out: Average % Inhibition FLT3
Chain of FLT3 (P36888 27-993): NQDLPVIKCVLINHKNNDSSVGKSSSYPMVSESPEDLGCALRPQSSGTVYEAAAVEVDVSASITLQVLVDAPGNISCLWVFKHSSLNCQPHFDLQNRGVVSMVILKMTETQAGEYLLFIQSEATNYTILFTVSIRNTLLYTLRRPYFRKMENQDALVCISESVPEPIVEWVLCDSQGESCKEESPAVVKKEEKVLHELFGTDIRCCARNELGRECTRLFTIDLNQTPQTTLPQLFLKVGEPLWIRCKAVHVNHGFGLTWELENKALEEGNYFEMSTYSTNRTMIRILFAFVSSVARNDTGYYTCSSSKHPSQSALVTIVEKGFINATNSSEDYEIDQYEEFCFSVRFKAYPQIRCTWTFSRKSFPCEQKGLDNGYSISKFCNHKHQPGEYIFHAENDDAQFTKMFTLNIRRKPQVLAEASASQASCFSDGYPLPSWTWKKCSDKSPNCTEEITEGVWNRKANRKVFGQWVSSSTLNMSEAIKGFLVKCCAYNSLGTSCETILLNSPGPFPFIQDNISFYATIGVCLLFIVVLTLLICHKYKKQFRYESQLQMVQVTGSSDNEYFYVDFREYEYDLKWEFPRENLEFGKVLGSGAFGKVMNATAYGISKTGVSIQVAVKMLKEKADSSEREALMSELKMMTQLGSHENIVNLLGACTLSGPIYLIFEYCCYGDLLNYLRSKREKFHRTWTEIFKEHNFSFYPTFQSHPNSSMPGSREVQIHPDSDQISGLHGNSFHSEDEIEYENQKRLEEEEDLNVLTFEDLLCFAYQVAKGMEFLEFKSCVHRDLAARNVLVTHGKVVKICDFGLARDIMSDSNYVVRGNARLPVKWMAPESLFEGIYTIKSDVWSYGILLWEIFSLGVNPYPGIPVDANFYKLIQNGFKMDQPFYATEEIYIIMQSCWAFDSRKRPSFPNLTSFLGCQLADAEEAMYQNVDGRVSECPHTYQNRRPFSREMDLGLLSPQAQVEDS

AurA = AurA (Homo sapiens, UniProt O14965); experiment: as above; details: read-out: Average % Inhibition AurA
CAMKIIα = target: T2, CAMKIIα (Homo sapiens, UniProt Q9UQM7); experiment: In vitro radiometric CAMK kinase assay; type: biochemical
T2 construct: purchased Enzo Life Sciences
Description: In vitro radiometric kinase assays were conducted as previously described. Briefly, 1 μCi [γ-^32P] ATP (PerkinElmer Life Sciences), 70 μM ATP, 50 ng purified recombinant human PKD1 (Biomol International, Plymouth Meeting, PA), PKD2 (SignalChem, Richmond, BC, Canada), or CAMKIIα (Enzo Life Sciences) or 75 ng PKD3 (Enzo Life Sciences), and 2.5 μg syntide-2 (Sigma) in 50 μl kinase buffer containing 50 mM Tris-HCl, pH 7.5, 4 mM MgCl2, and 10 mM β-mercaptoethanol. For the CAMK assay, 0.5 mM CaCl2 and 30 ng/μl calmodulin were pre-incubated for 10 min on ice, and then added to each reaction mixture. The reaction was incubated at 30°C for 10 min, and 25 μl of the reaction mixture was then spotted onto Whatman P81 filter paper (Whatman Inc., Clifton, NJ). The filter papers were washed 3 times in 0.5% phosphoric acid, air-dried, and counted using a Beckman LS6500 multipurpose scintillation counter (Beckman).
To determine whether the novel analogs retained this specificity, we tested the compounds against their ability to inhibit PKCα, -βI, -δ, and CAMKIIα in in vitro radiometric kinase activity assays.
Inhibition of PKCα (A), PKCβI (B), PKCδ (C), or CAMKIIα (D) by each of the 5 analogs was determined at 100 nM, 1 μM, and 10 μM concentrations. […] Statistical significance was determined using the unpaired t-test. ns, not statistically significant; *, p < 0.05; **, p < 0.01; ***, p < 0.001.

Compound | inhibition at 10 µM (PKD2) | inhibition at 10 µM (ErbB4) | inhibition at 10 µM (PDK1) | inhibition at 10 µM (MARK1) | inhibition at 10 µM (c-Raf) | inhibition at 10 µM (PKCγ) | inhibition at 10 µM (MSK1) | inhibition at 10 µM (SRC) | inhibition at 10 µM (PKG1α) | inhibition at 10 µM (PIM2) | inhibition at 10 µM (PDGFRα) | inhibition at 10 µM (PKA) | inhibition at 10 µM (FLT3) | inhibition at 10 µM (AurA) | inhibition of CAMKIIα (in words) (CAMKIIα) | inhibition at 10 µM (CAMKIIα; 10 μM)
O=C1NCCCc2c1oc1ccc(O)cc21 [CID755673, 7-Hydroxy-2,3,4,5-tetrahydro-[1]benzoxolo[2,3-c]azepin-1-one] | 95% | 1% | 22% | 12% | 2% | 30% | 7% | 7% | 13% | 6% | 5% | 6% | 14% | 7% |  | 
O=C1NCCSc2c1sc1ccc(O)c(I)c21 [kb-NB165-31] |  |  |  |  |  |  |  |  |  |  |  |  |  |  | significant inhibitory activity | ~70%
